According to PMC6274376, “Naturally Inspired Molecules as Multifunctional Agents for Alzheimer’s Disease Treatment” (Molecules, 2016):
Where “and” joins values, the source holds several entries; their conditions need not be identical. Identical values can stand only once.

Tests used:
hBACE-1 = hBACE-1 (Homo sapiens, UniProt P56817); test: BACE-1 FRET inhibition assay; type: biochemical; conditions: FRET assay; average of multiple experiments each in triplicate, ± SEM
Experimental: The new benzophenone-based hybrids 3–7 presented in this study were first evaluated for their in vitro ability to inhibit the enzymatic activity of BACE-1, by means of a biochemical assay performed using the fluorescence resonance energy transfer (FRET) methodology and in comparison to inhibitor IV [22] as reference compound (Table 1). For the most interesting compounds 3–5, endowed with the orto-hydroxycarbonyl substitution pattern, the neuroprotective potential was determined as lack of toxic effects on neuronal cell viability and as Cu(II) chelating activity (Table 2); moreover, their direct interactions with Cu(II) ion were confirmed by a UV-vis spectrophotometric study.
Inhibition studies were performed using the following procedure: 5 μL of test compound (or DMSO) were pre-incubated with 175 μL of enzyme (10.37 nM, final concentration) in 20 mM NaOAc pH 4.5 containing CHAPS (0.1% w/v) for 1 h at r.t.; M-2420 (3 μM, final concentration) was then added and left to react for 15 min. The fluorescence signal was read at λem = 405 nm (λexc = 320 nm). DMSO concentration in the final mixture was maintained below 5% (v/v) to guarantee no significant loss of enzyme activity.Fluorescence intensities with and without inhibitor were compared and the percent inhibition due to the presence of test compounds was calculated. The background signal was measured in control wells containing all the reagents, except theenzymeand subtracted. The % inhibition due to the presence of increasing test compound concentration was calculated by the following expression: 100 − (IFi/IFo × 100) where IFi and IFo are the fluorescence intensities obtained for the enzyme in the presence and in the absence of inhibitor, respectively. Inhibition curves were obtained for each compound by plotting the % inhibition versus the logarithm of inhibitor concentration in the assay sample. The linear regression parameters were determined and the IC50 extrapolated (GraphPad Prism 4.0, GraphPad Software Inc., San Diego, CA, USA).

[1] = Cu(II) chelating assay (bathocuproinedisulfonic acid disodium salt, BCS); type: physicochemical
Experimental: Data were expressed as chelating activity percentage (Table 2).
The Cu(II) chelating activity of the compounds was determined using the bathocuproinedisulfonic acid disodium salt (BCS) assay as previously described. Briefly, 50 μL of a 0.25 mM CuSO4 solution were mixed for 2 min with 50 μL of 5–20 µM compound solution in 100 µL of HEPES buffer (15 mM). Hydroxylamine (1 mM) was added after 2 min in order to reduce non-chelated cupric ions into cuprous ones. Finally, 50 μL of BCS (5 mM) or water (blank) was added and the absorbance at 490 nm was measured by spectrophotometry using a multilabel plate reader (VICTOR™ X3, PerkinElmer, Waltham, MA, USA) immediately and at 5 min. Na2EDTA (5–20 µM) was used as a positive control. The ability of the test compounds to chelate cupric ions was calculated using the following equation: chelating activity (%) = [1 − (Abs BCS + compound/Abs BCS) × 100].

SH-SY5Y cells = test: Inhibition of Cu(II)-mediated intracellular ROS formation (H2DCF-DA probe); type: cell-based, human; conditions: 5 and 10 µM compound, H2O2 (100 µM)/CuSO4 (25 µM), 30 min
Experimental: Our attention was then focused on the study of the intracellular antioxidant effect mediated by Cu(II) chelation. Therefore, compound 5 was selected to be studied in SH-SH5Y cells for its ability to counteract ROS formation elicited by Fenton reaction with CuSO4 (25 µM) and H2O2 (100 µM), and using 2′,7′-dichlorodihydrofluorescein diacetate (H2DCF-DA) as the fluorescent probe.
The intracellular antioxidant activity of the compounds was evaluated in SH-SY5Y cells as previously described with minor changes. Briefly, the SH-SY5Y cells were seeded in 96-well plates at 3 × 10^4 cells/well and incubated for 24 h at 37 °C in 5% CO2. […] The ROS formation was measured (excitation at 485 nm and emission at 535 nm) using a multilabel plate reader (VICTOR™ X3). The values are expressed as arbitrary fluorescence units (AUF).
Figure 2 Effect of compound 5 on ROS formation elicited by H2O2/CuSO4 in SH-SY5Y cells. […] At the end of the incubation, intracellular ROS formation was determined using a fluorescence probe, as described in the Materials and Methods section. The arbitrary units of fluorescence (AUF) values are shown as mean ± SD of at least three independent experiments (^### P < 0.001 versus untreated cells, *** P < 0.001 versus cells treated with H2O2/CuSO4, at ANOVA with Bonferroni’s Post Hoc Test).

[2] = UV-vis spectrophotometric evaluation of Cu(II) ion complexation; type: physicochemical
Excerpt: Chalcone conjugates 4 and 5 were investigated to evaluate their ability to complex Cu(II) ions via a UV-vis spectrophotometric study.
Therefore, we decided to carry on the spectrophotometric measurements in a mixed solvent: aqueous MOPS aqueous buffer […] pH 7.4 /DMF in 1:4 ratio, respectively. Flavonoids bearing the 4-carbonyl-5-hydroxyl chelation site have characteristic UV-vis spectra, characterized by a wide and non-structured band centred around 370–380 nm, with a molar extinction coefficient of 50,000 cm^−1·M^−1 that is attributed to HOMO-LUMO transition with a π-π* character.
All reagents and solvents were used as received (from Aldrich, St. Louis, MO, USA) without further purification: copper(II) sulphate hydrate (≥98%), 3-(N-Morpholino)propanesulfonic acid (MOPS, ≥99.5%), sodium hydroxide (≥98%), N,N-dimethylformamide (spectroscopic grade, DMF). A Milli-Q system (Millipore, Billerica, MA, USA) was used for the purification of water (resistivity ≥18.2 MΩ). MOPS bufferstock solution were obtained by a dissolution in Milli-Q water of 3-(N-morpholino)propane sulphonic acid to a final concentration of 10^−3 M. The pH was corrected with a solution of sodium hydroxide 1 N to a value of pH 7.4. Absorption spectra were recorded on a Perkin-Elmer Lambda 45 spectrophotometer at room temperature. Spectrophotometric titrations were performed as follows: stock solutions of ligands (ca. 10^−3 M) were prepared in DMF, diluted down to the desired concentration, in the quartz cuvette, in MOPS buffer 10^−3 M pH 7.4/DMF (1:4) to a final volume of 2.5 mL and then titrated by adding increasing amounts of Cu(II) (3.04 × 10^−3 Min DMF).

Chain of hBACE-1 (P56817 46-501): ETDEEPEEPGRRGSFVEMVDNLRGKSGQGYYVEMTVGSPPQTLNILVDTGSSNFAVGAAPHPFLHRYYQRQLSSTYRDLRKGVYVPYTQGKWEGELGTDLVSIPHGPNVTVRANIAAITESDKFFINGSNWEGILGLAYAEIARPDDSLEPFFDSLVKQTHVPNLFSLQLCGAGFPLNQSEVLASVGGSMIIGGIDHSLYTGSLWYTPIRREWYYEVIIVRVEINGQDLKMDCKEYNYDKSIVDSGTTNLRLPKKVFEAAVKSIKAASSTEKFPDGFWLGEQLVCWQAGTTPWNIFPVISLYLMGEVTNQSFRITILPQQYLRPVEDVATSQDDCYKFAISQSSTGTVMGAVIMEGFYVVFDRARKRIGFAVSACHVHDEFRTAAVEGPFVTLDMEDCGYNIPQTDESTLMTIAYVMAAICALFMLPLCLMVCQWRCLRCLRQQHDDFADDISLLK

With `CN(Cc1ccccc1)Cc1ccc(C(=O)c2ccc(OCCOc3ccc(C(=O)/C=C/c4cccc5ccccc45)c(O)c3)cc2)cc1` [Compound 5, E-1-{4-[2-(4-4-Benzylmethylaminomethylbenzoylphenoxy)ethoxy]-2-hydroxyphenyl}-3-(naphthalen-1-yl)-prop-2-en-1-one] as the compound, how does the IC50 (hBACE-1) read?
The IC50 was 4.02 ± 0.29 µM.

And the “Cu(II)-Chelating Activity” value ([1]; 5 µM compound, fixed 40 µM CuSO4)?
Its value is 9.48%.

And the “Cu(II)-Chelating Activity” value ([1]; 10 µM compound, fixed 40 µM CuSO4)?
The value was 13.78%.

What about the “Cu(II)-Chelating Activity” value ([1]; 20 µM compound, fixed 40 µM CuSO4, mean ± SD) of the same compound?
Its value is 19.73% and 19.73 ± 0.30%.

What about the “ROS formation evoked by H2O2/CuSO4 (arbitrary fluorescence units)” value (SH-SY5Y cells) of the same compound?
The value was “significantly decreased”.

What about the “ability to complex Cu(II) ions” value ([2]; UV-vis spectra, MOPS buffer pH 7.4/DMF 1:4) of the same compound?
The value was “able to chelate the selected ion”.

What about the “association constant (order of magnitude)” value ([2]; estimated from titration data, 1:1 complex stoichiometry with Cu(II), MOPS pH 7.4/DMF 1:4) of the same compound?
The value was ~10^4.
